In ChEMBL document CHEMBL1128816, “Synthesis and structure-activity relationships of new acetylcholinesterase inhibitors: Morpholinoalkylcarbamoyloxyeseroline derivatives” (Bioorg Med Chem Lett, 1995) one finds IC50 data, which are given here for two molecules.

In the experiment the target is Acetylcholinesterase (Homo sapiens, UniProt P22303). Description: Inhibition of Acetylcholinesterase (AChE) from human RBC.
Sequence of Acetylcholinesterase (P22303 whole entry): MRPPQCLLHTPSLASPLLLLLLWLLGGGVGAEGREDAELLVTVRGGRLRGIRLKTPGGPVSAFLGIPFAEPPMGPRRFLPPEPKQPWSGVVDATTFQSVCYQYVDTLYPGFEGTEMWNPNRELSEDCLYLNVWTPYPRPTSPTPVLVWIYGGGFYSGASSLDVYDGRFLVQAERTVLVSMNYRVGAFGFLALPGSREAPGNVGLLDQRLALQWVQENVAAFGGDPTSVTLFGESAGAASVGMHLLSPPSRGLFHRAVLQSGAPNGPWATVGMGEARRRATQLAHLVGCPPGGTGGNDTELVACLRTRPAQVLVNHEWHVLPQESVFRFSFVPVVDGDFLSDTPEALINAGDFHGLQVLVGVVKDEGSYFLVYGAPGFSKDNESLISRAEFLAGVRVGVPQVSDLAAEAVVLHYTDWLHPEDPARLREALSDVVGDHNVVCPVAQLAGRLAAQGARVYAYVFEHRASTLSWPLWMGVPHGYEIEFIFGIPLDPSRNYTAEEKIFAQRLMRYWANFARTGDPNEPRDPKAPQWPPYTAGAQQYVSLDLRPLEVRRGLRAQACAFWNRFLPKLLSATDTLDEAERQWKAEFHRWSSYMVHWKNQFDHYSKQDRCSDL

The IC50 is the point on the concentration scale where inhibition reaches its midpoint. A lower IC50 goes with greater potency. `CN1CC[C@@]2(C)c3cc(OC(=O)NCCCCN4CCOCC4)ccc3N(C)[C@@H]12` returned an IC50 of 21 µM.

In turn, `CN1CC[C@@]2(C)c3cc(OC(=O)NCCCCCCCCN4CCOCC4)ccc3N(C)[C@@H]12` displayed a 50% inhibitory concentration (IC50) of 0.08 µM.
